Experimental data from US5928185A, “Iontophoresis device for the transcutaneous delivery of an active principle such as an anionic oligosaccharide” (Sanofi, priority 1995, dated 1999).

Key:
[1] = Transdermic passage of sodium pentasaccharide salt by iontophoresis at constant voltage through nude rat skin (Example 1)
Procedure: Study of the transdermic passage of a sodium pentasaccharide salt by iontophoresis at constant voltage.
The operation was carried out in iontophoresis cells of identical structure. Each iontophoresis cell consisted of three coaxial adjacent cylindrical compartments having a cross-sectional area of 2 cm^2, namely, in this order, a donor compartment, a receiver compartment and a back-electrode compartment, these three compartments being each separated from the following one in leak-tight fashion by a piece of nude rat skin (OFA/hr/hr) used as a membrane for studying the transcutaneous diffusion. […] The receiver compartment, having a volume of 10 ml, held physiological saline solution supplemented with 500 ppm of NaN3 and was stirred using a magnetic bar. The back-electrode compartment, which was identical to the donor compartment, held 0.5 ml of a 2% by weight aqueous solution of sodium chloride as well as 500 ppm by weight of NaN3. At its opposite end from the receiver compartment, the donor compartment was equipped with a negative electrode. In the same way as the donor compartment, the back-electrode compartment was equipped with a positive electrode (back electrode).
The rat skin samples had had the subcutaneous tissue removed and had been preserved by freezing at -40° C. until they were mounted in the iontophoresis cell, with the dermic faces turned towards the receiver compartment, after they had been placed for 15 minutes in physiological saline solution supplemented with 500 ppm of NaN3.
For each of the tests which were carried out, four identical iontophoresis cells were started simultaneously. The active exchange surface area was 2 cm^2 for each skin.
A pulsed current generator made it possible to set up an electrical signal of the potentiostatic type between the electrodes of the four cells, mounted in parallel, with a peak voltage equal to 2.2 volts and a duty ratio of 50% (i.e. an average voltage of 1.1 volts) and a frequency of 25 kHz.
The pulsed current produced by the generator was applied for 6 hours, the electrode of the donor compartment of each cell being connected to the negative pole of the said generator, and the back electrodes to the positive pole.
At the end of the said time, an aliquot of the medium contained in the receiver compartment was withdrawn and the quantity of pentasaccharide that had passed through the skin separating the donor and the receiver compartments of each cell was determined by assay. A second sample was taken 24 hours after the start of each experiment, i.e. 18 hours after the electrical signal had stopped.
Five tests 1a to 1e were carried out as follows:
Test 1a: The negative electrode and the positive electrode consisted of a titanium film having a thickness equal to 10 μm. No voltage was applied to the electrodes, in order to determine the passive transcutaneous diffusion.
Test 1b: The negative electrode and the positive electrode consisted of a graphite sheet having a thickness of 60 μm.
Test 1c: The negative electrode and the positive electrode consisted of a titanium film having a thickness equal to 10 μm.
Test 1d to 1e: The negative electrode consisted of a silver film having a thickness of 15 μm, chlorided beforehand on one face in order to contain a silver chloride layer corresponding to 1.8 mAh/cm^2, whereas the positive electrode consisted of a silver film having a thickness of 15 μm, very slightly chlorided on one face (a quantity of silver chloride corresponding to 0.1 mAh/cm^2, the chlorided face of each electrode being on the side adjacent to the rat skin membrane.
In tests Ia to Id, the donor and the receiver compartments of each cell held a 0.06 molar buffer composition based on sodium monohydrogenphosphate and dihydrogenphosphate in equimolar quantities, so as to keep the pH in the said compartments at a value of about 7. In test 1e, no buffer was used.

[2] = Administration of pentasaccharide sodium salt to minipigs by iontophoresis with periodic current reversal; plasma levels (Example 4); format: in vivo, minipig
Procedure: Administration to minipigs of the sodium salt of a pentasaccharide by iontophoresis with set current density with periodic reversal of the current direction.
The following iontophoretic administration tests were carried out on 4 minipigs by using the same current generator and the same type of electrodes as in Example 3, and by applying the following conditions:
The electrodes themselves consisted of 15 μm thick silver films chlorided by electrolytic oxidation in a ratio of 0.5 mAh of silver chloride per cm^2. The reservoirs, also measuring 20 cm^2, consisted of a sheet of blotting paper made of cellulose fibres supplemented with polypropylene fibrils, impregnated to a level of 50 mg/cm^2 with an aqueous solution containing 2% by weight of pentasaccharide and 0.2% by weight of NaCl. Each electrode, the anode and the cathode, contained in all 1 g of solution, i.e. 20 mg of pentasaccharide (1 mg/cm^2) for an active surface area of 20 cm^2. 40 mg of pentasaccharide were therefore engaged in all per animal.
The current generator delivered a constant intensity of 2.5 mA, i.e. 125 μA/cm^2 of direct current with regular reversals of the current direction every 30 minutes for a total time of 8 hours, corresponding to the passage of […] of direct current.
Each of the electrodes, having identical structure and composition, was therefore operated alternately as the cathode and then as the anode, the presence of sodium chloride in each of the reservoirs ensuring their permanent operation as a reversible electrode, thus avoiding any parasitic reaction of hydrolysis (with a change in the pH) or oxidation/reduction of the active principle.
In test 4a, involving 3 animals with an average weight of 11.8 kg, the electrodes were put in place but not connected to the current generator, whereas for all the tests 4b, which concerned 4 animals with an average weight of 12.3 kg, the current of 2.5 mA was applied for 8 hours with automated reversal of the current direction every half hour.
In tests 4a and 4b, a number of blood samples were taken periodically up to 30 hours after the start of each experiment, as in Example 3.
The plasma levels of the various samples are indicated in Table IV for the purpose of comparing tests 4a and 4b with one another and with the results of the tests carried out in Example 3, in particular tests 3c and 3d which correspond to intravenous and subcutaneous injections.

[3] = test 4b: iontophoresis 0.125 mA/cm^2, 8 hours, reversal every 30 minutes

O=C(O)C1OC(OC2C(COS(=O)(=O)O)OC(OC3C(C(=O)O)OC(OC4C(COS(=O)(=O)O)OC(O)C(NS(=O)(=O)O)C4O)C(OS(=O)(=O)O)C3O)C(NS(=O)(=O)O)C2OS(=O)(=O)O)C(O)C(O)C1OC1OC(COS(=O)(=O)O)C(O)C(O)C1NS(=O)(=O)O (centres unmarked) [pentasaccharide]
quantities of pentasaccharide diffused into the receiver compartment by iontophoresis ([1]; Ag/AgCl negative electrodes (reversible)): increase very greatly | Fraction of active principle used (%) ([1]; at 6 hours, test 1a: titanium, 0 V (passive)): ~ zero | Fraction of active principle used (%) ([1]; at 6 hours, test 1b: graphite, 1.1 V): 0.1% | Fraction of active principle used (%) ([1]; at 6 hours, test 1c: titanium, 1.1 V): 0.08% | Fraction of active principle used (%) ([1]; at 6 hours, test 1e: Ag/AgCl, 1.1 V, no buffer): 2.8% | Fraction of active principle used (%) ([1]; at 6 hours, test 1d: Ag/AgCl, 1.1 V, buffer): 1.4% | Fraction of active principle used (%) ([1]; at 24 hours, test 1a: titanium, 0 V (passive)): ~ zero | Fraction of active principle used (%) ([1]; at 24 hours, test 1b: graphite, 1.1 V): 0.2% | Fraction of active principle used (%) ([1]; at 24 hours, test 1c: titanium, 1.1 V): 0.15% | Fraction of active principle used (%) ([1]; at 24 hours, test 1e: Ag/AgCl, 1.1 V, no buffer): 3.3% | Fraction of active principle used (%) ([1]; at 24 hours, test 1d: Ag/AgCl, 1.1 V, buffer): 1.5% | quantities of pentasaccharide diffused into the receiver compartment by iontophoresis ([1]; irreversible electrodes such as graphite or titanium): very small and similar to the passive transport | Antifactor activity Xa/ml at 6 hours ([1]; test 1a: titanium electrodes, 0 V (passive), buffer pH about 7): < 0.1 units per ml | Antifactor activity Xa/ml at 24 hours ([1]; test 1a: titanium, 0 V (passive)): 0.25 units per ml | Antifactor activity Xa/ml at 6 hours ([1]; test 1b: graphite electrode, average 1.1 V, buffer): 0.70 units per ml | Antifactor activity Xa/ml at 24 hours ([1]; test 1b: graphite, 1.1 V, 18 hours after current stopped): 1.13 units per ml | Antifactor activity Xa/ml at 6 hours ([1]; test 1c: titanium electrode, average 1.1 V, buffer): 0.50 units per ml | Antifactor activity Xa/ml at 24 hours ([1]; test 1c: titanium, 1.1 V, 18 hours after current stopped): 0.95 units per ml | Antifactor activity Xa/ml at 6 hours ([1]; test 1e: Ag/AgCl electrode, average 1.1 V, about 0.20 mA/cm^2, no buffer): 18.1 units per ml | Antifactor activity Xa/ml at 24 hours ([1]; test 1e: Ag/AgCl, 1.1 V, no buffer, 18 hours after current stopped): 21.4 units per ml | Antifactor activity Xa/ml at 6 hours ([1]; test 1d: Ag/AgCl electrode, average 1.1 V, about 0.20 mA/cm^2, buffer): 9.1 units per ml | Antifactor activity Xa/ml at 24 hours ([1]; test 1d: Ag/AgCl, 1.1 V, buffer, 18 hours after current stopped): 9.7 units per ml | bioavailability ([2]; minipig, plasma, topical, test 4b, 40 mg engaged): ~21% | average quantity of pentasaccharide administered during the treatment ([2]; passive test 4a): zero | Initial plasma level ([2]; test 4a: passive, 0 mA/cm^2): 0 anti-Xa U/mL | Plasma level at 30 minutes ([2]; test 4a: passive, 0 mA/cm^2): 0 | Plasma level at 1 hour ([2]; test 4a: passive, 0 mA/cm^2): 0 | Plasma level at 2 hours ([2]; test 4a: passive, 0 mA/cm^2): 0 | Plasma level at 4 hours ([2]; test 4a: passive, 0 mA/cm^2): 0 | Plasma level at 6 hours ([2]; test 4a: passive, 0 mA/cm^2): 0 | Plasma level at 8 hours ([2]; test 4a: passive, 0 mA/cm^2): 0 | Plasma level at 10 hours ([2]; test 4a: passive, 0 mA/cm^2): 0 | Plasma level at 12 hours ([2]; test 4a: passive, 0 mA/cm^2): 0 | Plasma level at 16 hours ([2]; test 4a: passive, 0 mA/cm^2): 0 | Plasma level at 26 hours ([2]; test 4a: passive, 0 mA/cm^2): 0 | Plasma level at 30 hours ([2]; test 4a: passive, 0 mA/cm^2): 0 | quantity of pentasaccharide administered per mAh ([2]; test 4b): 372 μg/cm^2 | Initial plasma level [2, 3]: 0 anti-Xa U/mL | Plasma level at 30 minutes [2, 3]: 0.11 ± 0.05 | Plasma level at 1 hour [2, 3]: 0.16 ± 0.05 | Plasma level at 2 hours [2, 3]: 0.28 ± 0.1 | Plasma level at 4 hours [2, 3]: 0.64 ± 0.2 | Plasma level at 6 hours [2, 3]: 0.57 ± 0.18 | Plasma level at 8 hours [2, 3]: 0.59 ± 0.15 | Plasma level at 10 hours [2, 3]: 0.61 ± 0.16 | Plasma level at 12 hours [2, 3]: 0.58 ± 0.05 | Plasma level at 16 hours [2, 3]: 0.2 ± 0.05 | Plasma level at 26 hours [2, 3]: 0.14 ± 0.02 | Plasma level at 30 hours [2, 3]: 0.05 ± 0.02 | average quantity of pentasaccharide administered during the treatment ([2]; test 4b, from area under the curve): 8.45 ± 1.5 mg
